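Step 1: Grow cells in 96-well plates. Step 2: Expose to compound for 48 hours at 5 concentrations. Step 3: Interpolate endpoints linearly; if unreached, use highest concentration. TGI denotes the concentration required for complete inhibition of growth.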
Key:
Assay in all cases: DTP human tumour cell line panel, 48 h
786-0 renal = tested on: 786-0 renal
A498 renal = tested on: A498 renal
A549 NSCLC = tested on: A549 NSCLC
ACHN renal = tested on: ACHN renal
BT-549 breast = tested on: BT-549 breast
CAKI-1 renal = tested on: CAKI-1 renal
CCRF-CEM leukemia = tested on: CCRF-CEM leukemia
COLO 205 colon = tested on: COLO 205 colon
DU-145 prostate = tested on: DU-145 prostate
EKVX NSCLC = tested on: EKVX NSCLC
HCT-116 colon = tested on: HCT-116 colon
HCT-15 colon = tested on: HCT-15 colon
HL-60(TB) leukemia = tested on: HL-60(TB) leukemia
HOP-62 NSCLC = tested on: HOP-62 NSCLC
HOP-92 NSCLC = tested on: HOP-92 NSCLC
HS 578T breast = tested on: HS 578T breast
HT29 colon = tested on: HT29 colon
IGROV1 ovarian = tested on: IGROV1 ovarian
K-562 leukemia = tested on: K-562 leukemia
KM12 colon = tested on: KM12 colon
LOX IMVI melanoma = tested on: LOX IMVI melanoma
M14 melanoma = tested on: M14 melanoma
MALME-3M melanoma = tested on: MALME-3M melanoma
MCF7 breast = tested on: MCF7 breast
MDA-MB-231 breast = tested on: MDA-MB-231 breast
MDA-MB-435 = tested on: MDA-MB-435
MDA-N = tested on: MDA-N
MOLT-4 leukemia = tested on: MOLT-4 leukemia
NCI-H226 lung = tested on: NCI-H226 lung
NCI-H23 lung = tested on: NCI-H23 lung
NCI-H460 lung = tested on: NCI-H460 lung
NCI-H522 lung = tested on: NCI-H522 lung
NCI/ADR-RES ovarian = tested on: NCI/ADR-RES ovarian
OVCAR-3 ovarian = tested on: OVCAR-3 ovarian
OVCAR-4 ovarian = tested on: OVCAR-4 ovarian
OVCAR-5 ovarian = tested on: OVCAR-5 ovarian
OVCAR-8 ovarian = tested on: OVCAR-8 ovarian
PC-3 prostate = tested on: PC-3 prostate
RPMI-8226 leukemia = tested on: RPMI-8226 leukemia
RXF 393 renal = tested on: RXF 393 renal
SF-268 CNS = tested on: SF-268 CNS
SF-295 CNS = tested on: SF-295 CNS
SF-539 CNS = tested on: SF-539 CNS
SK-MEL-2 melanoma = tested on: SK-MEL-2 melanoma
SK-MEL-28 melanoma = tested on: SK-MEL-28 melanoma
SK-MEL-5 melanoma = tested on: SK-MEL-5 melanoma
SK-OV-3 ovarian = tested on: SK-OV-3 ovarian
SN12C renal = tested on: SN12C renal
SNB-19 CNS = tested on: SNB-19 CNS
SR leukemia = tested on: SR leukemia
SW-620 colon = tested on: SW-620 colon
T-47D breast = tested on: T-47D breast
TK-10 renal = tested on: TK-10 renal
U251 CNS = tested on: U251 CNS
UACC-257 melanoma = tested on: UACC-257 melanoma
UACC-62 melanoma = tested on: UACC-62 melanoma
UO-31 renal = tested on: UO-31 renal
HCC-2998 colon = tested on: HCC-2998 colon
SNB-75 CNS = tested on: SNB-75 CNS

## CC(=O)Nc1cc(CN2CCCCC2)c(O)c2ncccc12
786-0 renal
  TGI: 40.9 µM
A498 renal
  TGI: > 100 µM
A549 NSCLC
  TGI: > 100 µM
ACHN renal
  TGI: 72.2 µM
BT-549 breast
  TGI: > 100 µM
CAKI-1 renal
  TGI: > 100 µM
CCRF-CEM leukemia
  TGI: > 100 µM
COLO 205 colon
  TGI: > 100 µM
DU-145 prostate
  TGI: 75.7 µM
EKVX NSCLC
  TGI: > 100 µM
HCT-116 colon
  TGI: 75.9 µM
HCT-15 colon
  TGI: > 100 µM
HL-60(TB) leukemia
  TGI: 36.8 µM
HOP-62 NSCLC
  TGI: > 100 µM
HOP-92 NSCLC
  TGI: > 100 µM
HS 578T breast
  TGI: > 100 µM
HT29 colon
  TGI: > 100 µM
IGROV1 ovarian
  TGI: > 100 µM
K-562 leukemia
  TGI: > 100 µM
KM12 colon
  TGI: > 100 µM
LOX IMVI melanoma
  TGI: 84.8 µM
M14 melanoma
  TGI: 68.2 µM
MALME-3M melanoma
  TGI: 69.4 µM
MCF7 breast
  TGI: > 100 µM
MDA-MB-231 breast
  TGI: 55.6 µM
MDA-MB-435
  TGI: > 100 µM
MDA-N
  TGI: > 100 µM
MOLT-4 leukemia
  TGI: 43.1 µM
NCI-H226 lung
  TGI: 86.1 µM
NCI-H23 lung
  TGI: > 100 µM
NCI-H460 lung
  TGI: 36.9 µM
NCI-H522 lung
  TGI: > 100 µM
NCI/ADR-RES ovarian
  TGI: > 100 µM
OVCAR-3 ovarian
  TGI: 96.9 µM
OVCAR-4 ovarian
  TGI: > 100 µM
OVCAR-5 ovarian
  TGI: > 100 µM
OVCAR-8 ovarian
  TGI: > 100 µM
PC-3 prostate
  TGI: 81 µM
RPMI-8226 leukemia
  TGI: 51.1 µM
RXF 393 renal
  TGI: > 100 µM
SF-268 CNS
  TGI: 79.2 µM
SF-295 CNS
  TGI: > 100 µM
SF-539 CNS
  TGI: > 100 µM
SK-MEL-2 melanoma
  TGI: 23 µM
SK-MEL-28 melanoma
  TGI: > 100 µM
SK-MEL-5 melanoma
  TGI: > 100 µM
SK-OV-3 ovarian
  TGI: > 100 µM
SN12C renal
  TGI: 70.9 µM
SNB-19 CNS
  TGI: > 100 µM
SR leukemia
  TGI: 37.5 µM
SW-620 colon
  TGI: > 100 µM
T-47D breast
  TGI: > 100 µM
TK-10 renal
  TGI: > 100 µM
U251 CNS
  TGI: 42 µM
UACC-257 melanoma
  TGI: 88.7 µM
UACC-62 melanoma
  TGI: 46.3 µM
UO-31 renal
  TGI: 46.8 µM

## CC(C)Cn1cnc2c(SCc3ccccn3)nc(N)nc21
786-0 renal
  TGI: > 100 µM
A498 renal
  TGI: > 100 µM
A549 NSCLC
  TGI: > 100 µM
ACHN renal
  TGI: > 100 µM
BT-549 breast
  TGI: > 100 µM
CAKI-1 renal
  TGI: > 100 µM
CCRF-CEM leukemia
  TGI: > 100 µM
COLO 205 colon
  TGI: > 100 µM
DU-145 prostate
  TGI: > 100 µM
EKVX NSCLC
  TGI: > 100 µM
HCC-2998 colon
  TGI: > 100 µM
HCT-116 colon
  TGI: > 100 µM
HCT-15 colon
  TGI: > 100 µM
HL-60(TB) leukemia
  TGI: > 100 µM
HOP-62 NSCLC
  TGI: > 100 µM
HOP-92 NSCLC
  TGI: > 100 µM
HS 578T breast
  TGI: > 100 µM
HT29 colon
  TGI: > 100 µM
IGROV1 ovarian
  TGI: > 100 µM
K-562 leukemia
  TGI: > 100 µM
KM12 colon
  TGI: > 100 µM
LOX IMVI melanoma
  TGI: > 100 µM
M14 melanoma
  TGI: > 100 µM
MALME-3M melanoma
  TGI: > 100 µM
MCF7 breast
  TGI: > 100 µM
MDA-MB-231 breast
  TGI: > 100 µM
MDA-MB-435
  TGI: > 100 µM
MDA-N
  TGI: > 100 µM
NCI-H226 lung
  TGI: > 100 µM
NCI-H23 lung
  TGI: > 100 µM
NCI-H460 lung
  TGI: > 100 µM
NCI-H522 lung
  TGI: > 100 µM
NCI/ADR-RES ovarian
  TGI: > 100 µM
OVCAR-3 ovarian
  TGI: > 100 µM
OVCAR-4 ovarian
  TGI: > 100 µM
OVCAR-5 ovarian
  TGI: > 100 µM
OVCAR-8 ovarian
  TGI: > 100 µM
PC-3 prostate
  TGI: > 100 µM
RPMI-8226 leukemia
  TGI: > 100 µM
RXF 393 renal
  TGI: > 100 µM
SF-268 CNS
  TGI: > 100 µM
SF-295 CNS
  TGI: > 100 µM
SK-MEL-2 melanoma
  TGI: > 100 µM
SK-MEL-28 melanoma
  TGI: > 100 µM
SK-MEL-5 melanoma
  TGI: > 100 µM
SK-OV-3 ovarian
  TGI: > 100 µM
SN12C renal
  TGI: > 100 µM
SNB-19 CNS
  TGI: > 100 µM
SNB-75 CNS
  TGI: > 100 µM
SR leukemia
  TGI: > 100 µM
SW-620 colon
  TGI: > 100 µM
T-47D breast
  TGI: > 100 µM
TK-10 renal
  TGI: > 100 µM
U251 CNS
  TGI: > 100 µM
UACC-257 melanoma
  TGI: > 100 µM
UACC-62 melanoma
  TGI: > 100 µM
UO-31 renal
  TGI: > 100 µM

Source: PubChem BioAssay (NCI)
